Consider 16 compounds from ChEMBL document CHEMBL4364246, “Synthesis and biological evaluation of 5-aminoethyl benzophenanthridone derivatives as DNA topoisomerase IB inhibitors” (Eur J Med Chem, 2019).

Active and inactive are the calls of the source. The rule behind the calls is not given here.

Assay [1] concerns the target T1, DNA topoisomerase 1 (Homo sapiens) (UniProt P11387).
T1 sequence (whole entry): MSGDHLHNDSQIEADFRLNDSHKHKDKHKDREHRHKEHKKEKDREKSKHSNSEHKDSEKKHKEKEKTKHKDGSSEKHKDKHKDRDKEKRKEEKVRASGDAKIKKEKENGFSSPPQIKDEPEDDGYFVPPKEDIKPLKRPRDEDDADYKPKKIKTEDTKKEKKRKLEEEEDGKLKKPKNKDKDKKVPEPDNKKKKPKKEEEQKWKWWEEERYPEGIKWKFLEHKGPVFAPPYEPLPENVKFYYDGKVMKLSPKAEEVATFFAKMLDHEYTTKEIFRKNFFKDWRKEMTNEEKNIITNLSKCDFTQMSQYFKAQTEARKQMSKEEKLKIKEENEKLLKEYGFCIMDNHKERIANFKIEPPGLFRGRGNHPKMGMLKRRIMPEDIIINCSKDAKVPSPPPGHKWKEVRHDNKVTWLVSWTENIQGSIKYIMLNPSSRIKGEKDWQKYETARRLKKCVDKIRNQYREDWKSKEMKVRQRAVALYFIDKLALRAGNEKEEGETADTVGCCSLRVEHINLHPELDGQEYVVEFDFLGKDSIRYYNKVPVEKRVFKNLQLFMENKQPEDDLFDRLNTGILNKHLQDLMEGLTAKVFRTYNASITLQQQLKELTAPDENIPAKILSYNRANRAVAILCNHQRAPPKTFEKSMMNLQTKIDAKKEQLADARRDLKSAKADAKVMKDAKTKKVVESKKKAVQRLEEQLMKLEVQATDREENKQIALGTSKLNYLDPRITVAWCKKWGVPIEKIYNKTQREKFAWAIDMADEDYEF
In words: Inhibition of recombinant TOP1 (unknown origin) using 3'-[32P]-labeled 117 bp DNA oligonucleotide assessed as TOP1-mediated DNA cleavage by measuring induction and stabilization of cleavage sites 17, 35 and 79 at 1 uM incubated for 20 mins by PAGE analysis.

The target of assay [2] is T1, DNA topoisomerase 1 (Homo sapiens). In words: Inhibition of recombinant TOP1 (unknown origin) using 3'-[32P]-labeled 117 bp DNA oligonucleotide assessed as TOP1-mediated DNA cleavage by measuring induction and stabilization of cleavage sites 17, 35 and 79 incubated for 20 mins by PAGE analysis.
Assay [3] shares this target. In words: Inhibition of recombinant TOP1 (unknown origin) using 3'-[32P]-labeled 117 bp DNA oligonucleotide assessed as […] TOP1-mediated DNA cleavage incubated for 20 mins by PAGE analysis relative to 1 uM CPT.
A further assay concerns A549. Briefly: cells. Particulars: Homo sapiens, A549, 72 h.
For a further assay, the system named is HCT-116. In words: cells. To be noted: Homo sapiens, HCT-116, 72 h.
Another assay has as its system MCF7. Briefly: cells. To be noted: Homo sapiens, MCF7, 72 h.
For a further assay, the system named is DU-145. In words: cells. Particulars: Homo sapiens, DU-145, 72 h.
In assay [4] the target is T1, DNA topoisomerase 1 (Homo sapiens). In words: Inhibition of TOP1 in human HCT116 cells assessed as induction of cellular TOP1cc formation at 25 uM incubated for 1 hr by chemiluminescence based assay. Format: cell-based.
The target is the same in assay [5]. In words: Inhibition of TOP1 in human HCT116 cells assessed as induction of cellular TOP1cc formation incubated for 1 hr by chemiluminescence based assay. It counts as cell-based.
The target is the same in assay [6]. Briefly: Inhibition of TOP1 in human HCT116 cells assessed as induction of DNA damage by measuring increase in gammaH2AX foci at 1 uM incubated for 3 hrs by DAPI staining based immunofluorescence microscopic method. It counts as cell-based.

Turning to `COc1cc2c3c(n(CCCNCCO)c(=O)c2cc1OC)-c1cc2c(cc1C3=O)OCO2`, in assay [1], the outcome was Active.
As to `COc1cc2c(=O)n(CCN(C)P3(=O)OCCO3)c3c4cc5c(cc4ccc3c2cc1OC)OCO5`, in [2], the Activity result was “Dose-dependent effect”. Also, in assay [3], the inhibition lay within 50 to 75%.
In the case of `COc1cc2c(=O)n(CCN(C)S(=O)(=O)N(C)C)c3c4cc5c(cc4ccc3c2cc1OC)OCO5`, the GI50 is 7.9 µM in the assay with A549, 0.96 µM with HCT-116, 1.5 µM in the assay on MCF7 and 15 µM with DU-145. In addition, the inhibition in assay [3] fell in the range of 20 to 50%.
Consider `COc1cc2c(=O)n(CCNS(=O)(=O)C3CC3)c3c4cc5c(cc4ccc3c2cc1OC)OCO5`, for which, in [2], the Activity entry was “Dose-dependent effect”. Further, the GI50 in the assay with A549 was determined as 4.3 µM; in the assay on HCT-116, 5.2 µM; in the assay with MCF7, 3 µM; with DU-145, 1.3 µM. Moreover, in [3], the inhibition fell in the range of 50 to 75%.
Consider `COc1cc2c(=O)n(CCN(C)S(=O)(=O)N3CCCC3)c3c4cc5c(cc4ccc3c2cc1OC)OCO5`, for which the GI50 in the assay on A549 came to 5.3 µM; in the assay on HCT-116, 2.5 µM; with MCF7, 3.8 µM; with DU-145 it was 3.1 µM. Also, in assay [3], the inhibition is 20 to 50%.
Regarding `COc1cc2c(=O)n(C)c3c4cc5c(cc4ccc3c2cc1OC)OCO5`, the GI50 stood at 39 µM with A549, 74 µM in the assay on HCT-116, 31 µM with MCF7 and 64 µM in the assay with DU-145.
With `COc1cc2c(=O)n(CCNS(=O)(=O)N3CCOCC3)c3c4cc5c(cc4ccc3c2cc1OC)OCO5`, the Activity entry in assay [2] was “Dose-dependent effect”. Also, the concentration for 50% growth inhibition (GI50) amounted to 2.9 µM in the assay on A549, 1.1 µM in the assay on HCT-116, 0.89 µM in the assay on MCF7 and 1.6 µM with DU-145. In addition, the inhibition in assay [3] lay in the range of 50 to 75%.
For `COc1cc2c(=O)n(CCN(C)P(=O)(OC)OC)c3c4cc5c(cc4ccc3c2cc1OC)OCO5`, the Activity result in assay [2] was “Dose-dependent effect”. Further, the GI50 with A549 came out at 14 µM; in the assay on HCT-116, 9.2 µM; in the assay with MCF7 it was 10 µM; in the assay on DU-145 it was 5.3 µM. The inhibition in assay [3] was 50 to 75%.
With `COc1cc2c(=O)n(CCN(C)S(=O)(=O)N3CCOCC3)c3c4cc5c(cc4ccc3c2cc1OC)OCO5`, the GI50 was determined as 35 µM in the assay on A549, 40 µM in the assay with HCT-116, 64 µM in the assay with MCF7 and 48 µM with DU-145. In assay [3], the inhibition fell in the range of 20 to 50%.
On the same counts, the results for `COc1cc2c(=O)n(CCN(C)S(=O)(=O)C(F)(F)F)c3c4cc5c(cc4ccc3c2cc1OC)OCO5` are 42 µM, 86 µM, 35 µM, 65 µM and 0 to 50%.
On the same counts, the results for `COc1cc2c(=O)n(CCNP(=O)(OC)OC)c3c4cc5c(cc4ccc3c2cc1OC)OCO5` are 41 µM, 51 µM, 48 µM, 39 µM and 0 to 50%.
Turning to `COc1cc2c(=O)n(CCNS(=O)(=O)N(C)C)c3c4cc5c(cc4ccc3c2cc1OC)OCO5`, the concentration for 50% growth inhibition (GI50) in the assay on A549 came out at 35 µM; with HCT-116, 30 µM; with MCF7, 21 µM; in the assay on DU-145, 45 µM. Besides, the inhibition in [3] is 20 to 50%.
As to `COc1cc2c(=O)n(CCNS(=O)(=O)N3CCCC3)c3c4cc5c(cc4ccc3c2cc1OC)OCO5`, the GI50 is 61 µM with A549, 34 µM with HCT-116, 38 µM in the assay with MCF7 and 79 µM in the assay on DU-145. Further, the inhibition in assay [3] fell in the range of 0 to 50%.
Turning to `COc1cc2c(=O)n(CCNC(=O)C3CC3)c3c4cc5c(cc4ccc3c2cc1OC)OCO5`, the 50% growth inhibitory concentration (GI50) in the assay on A549 was 1.3 µM; in the assay with HCT-116, 5.3 µM; in the assay on MCF7, 2.2 µM; in the assay with DU-145, 7.8 µM. Moreover, the inhibition in assay [3] was in the range of 20 to 50%.
As for `CC[C@@]1(O)C(=O)OCc2c1cc1n(c2=O)Cc2cc3ccccc3nc2-1`, the outcome in [4] and in assay [6] was Active. Besides, in [5], the Activity result was “Dose-dependent effect”. The result in [1] was inactive.
As for `COc1cc2c(=O)n(CCN(C)S(=O)(=O)C3CC3)c3c4cc5c(cc4ccc3c2cc1OC)OCO5`, the concentration for 50% growth inhibition (GI50) in the assay on A549 was found to be 15 µM; with HCT-116 it was 7.9 µM; in the assay on MCF7, 5.8 µM; in the assay with DU-145, 10 µM. For the same compound, the inhibition in assay [3] lay within 20 to 50%.
